Where no end group is shown, it is not given here.
Assays:
Format in all cases: cell-based, human
[1] = test system: peptide-pulsed T2 cells; assay: IFN-gamma ELISPOT assay of CTLs induced with peptide-pulsed DCs; settings: CTLs from HLA-A*0201 positive donor after 3rd peptide stimulation, day 21; peptide-pulsed T2 vs control wells
Text: Monocyte-derived dendritic cells (DCs) were used as antigen-presenting cells to induce cytotoxic T lymphocyte (CTL) that responses against peptides presented on human leukocyte antigen (HLA). DCs were generated in vitro as described elsewhere (Nakahara S et al., Cancer Res 2003 Jul. 15, 63(14): 4112-8). Specifically, peripheral blood mononuclear cells isolated from a normal volunteer (HLA-A*0201 positive) by Ficoll-Paque plus (Pharmacia) solution were separated by adherence to a plastic tissue culture dish (Becton Dickinson) so as to enrich them as the monocyte fraction. The monocyte-enriched population was cultured in the presence of 1000 U/ml of granulocyte-macrophage colony-stimulating factor (R&D System) and 1000 U/ml of interleukin (IL)-4 (R&D System) in AIM-V Medium (Invitrogen) containing 2% heat-inactivated autologous serum (AS). After 7 days of culture, the cytokine-induced DCs were pulsed with 20 microgram/ml of each of the synthesized peptides in the presence of 3 microgram/ml of beta 2-microglobulin for 3 hr at 37 degrees C. in AIM-V Medium. The generated cells appeared to express DC-associated molecules, such as CD80, CD83, CD86 and HLA class II, on their cell surfaces (data not shown). These peptide-pulsed DCs were then inactivated by X ray-irradiated (20 Gy) and mixed at a 1:20 ratio with autologous CD8^+ T cells, obtained by positive selection with CD8 Positive Isolation Kit (Dynal). These cultures were set up in 48-well plates (Corning); each well contained 1.5×10^4 peptide-pulsed DCs, 3×10^5 CD8^+ T cells and 10 ng/ml of IL-7 (R&D System) in 0.5 ml of AIM-V/2% AS medium. Three days later, these cultures were supplemented with IL-2 (CHIRON) to a final concentration of 20 IU/ml. On day 7 and 14, the T cells were further stimulated with the autologous peptide-pulsed DCs. The DCs were prepared each time by the same way described above. CTL was tested against peptide-pulsed T2 cells after the 3rd round of peptide stimulation on day 21 (Tanaka H et al., Br J Cancer 2001 Jan. 5, 84(1): 94-9; Umano Y et al., Br J Cancer 2001 Apr. 20, 84(8): 1052-7; Uchida N et al., Clin Cancer Res 2004 Dec. 15, 10(24): 8577-86; Suda T et al., Cancer Sci 2006 May, 97(5): 411-9; Watanabe T et al., Cancer Sci 2005 August, 96(8): 498-506).
(§1) To examine specific CTL activity, interferon(IFN)-gamma enzyme-linked immunospot (ELISPOT) assay and IFN-gamma enzyme-linked immunosorbent assay (ELISA) were performed. Peptide-pulsed T2 (1×10^4/well) was prepared as stimulator cells. Cultured cells in 48-well plate, CTL lines and CTL clones were used as responder cells. IFN-gamma ELISPOT assay and IFN-gamma ELISA assay were performed under manufacture procedure.

[2] = test system: T2 cells pulsed with the corresponding peptide; assay: IFN-gamma ELISA of established CTL lines; settings: T2 cells pulsed with corresponding peptide vs T2 cells without peptide pulse
Description: CTLs were expanded in culture using the method similar to the one described by Riddell et al. (Walter E A et al., N Engl J Med 1995 Oct. 19, 333(16): 1038-44; Riddell S R et al., Nat Med 1996 February, 2(2): 216-23). A total of 5×10^4 CTLs were suspended in 25 ml of AIM-V/5% AS medium with 2 kinds of human B-lymphoblastoid cell lines, inactivated by Mitomycin C, in the presence of 40 ng/ml of anti-CD3 monoclonal antibody (Pharmingen). One day after initiating the cultures, 120 IU/ml of IL-2 were added to the cultures. The cultures were fed with fresh AIM-V/5% AS medium containing 30 IU/ml of IL-2 on days 5, 8 and 11 (Tanaka H et al., Br J Cancer 2001 Jan. 5, 84(1): 94-9; Umano Y et al., Br J Cancer 2001 Apr. 20, 84(8): 1052-7; Uchida N et al., Clin Cancer Res 2004 Dec. 15, 10(24): 8577-86; Suda T et al., Cancer Sci 2006 May, 97(5): 411-9; Watanabe T et al., Cancer Sci 2005 August, 96(8): 498-506).
as §1

[3] = test system: T2 cells pulsed with corresponding peptide; assay: IFN-gamma ELISA of CTL clones established by limiting dilution
Description: The dilutions were made to have 0.3, 1, and 3 CTLs/well in 96 round-bottomed micro titer plate (Nalge Nunc International). CTLs were cultured with 1×10^4 cells/well of 2 kinds of human B-lymphoblastoid cell lines, 30 ng/ml of anti-CD3 antibody, and 125 U/ml of IL-2 in a total of 150 microliter/well of AIM-V Medium containing 5% AS. 50 microliter/well of IL-2 were added to the medium 10 days later to reach a final concentration of 125 U/ml IL-2. CTL activity was tested on the 14th day, and CTL clones were expanded using the same method as described above (Uchida N et al., Clin Cancer Res 2004 Dec. 15, 10(24): 8577-86; Suda T et al., Cancer Sci 2006 May, 97(5): 411-9; Watanabe T et al., Cancer Sci 2005 August, 96(8): 498-506).
as §1

[4] = test system: MKN45 cells; assay: Cytotoxic activity of CTL clone, 51Cr-release, HLA-A*0201-negative control; settings: express MPHOSPH1 but not HLA-A*0201
Description: (§2) The CTL clones were examined for their ability to kill the tumor cells endogenously expressing MPHOSPH1 and HLA-A*0201. Target cells (tumor cell lines) were labeled with 100 micro-Ci of Na2^51CrO4 (Perkin Elmer) for 1 hr in CO2 incubator. Peptide-pulsed target cells were prepared by incubating the cells with 20 microgram/ml of the peptide for 16 hrs before labeling. Target cells labeled with ^51Cr were rinsed and mixed with CTL clones in a final volume of 200 microliter in 96-well round-bottom microtiter plates. The plates were centrifuged (4 minutes at 800 rpm) to increase cell-to-cell contact and placed into CO2 incubator. After 4 hrs of incubation, 50 microliter of the supernatant was collected from each well and the radioactivity was determined with a gamma counter (PerkinElmer). The percentage of specific cytotoxicity was determined by calculating the percentage of specific ^51Cr-release by the following formula: {(cpm of the test sample release−cpm of the spontaneous release)/(cpm of the maximum release−cpm of the spontaneous release)}×100. Spontaneous release was determined by incubating the target cells alone, in the absence of effector cells. The maximum release was obtained by incubating the targets with 1N HCl. All measurements were done in duplicate.

[5] = test system: T2 cells; assay: Cytotoxic activity of CTL clone, 51Cr-release, MPHOSPH1-negative control; settings: express HLA-A*0201 but not MPHOSPH1
Description: as §2

[6] = test system: UMUC-3 cells; assay: Cytotoxic activity of CTL clone, 51Cr-release; settings: express both MPHOSPH1 and HLA-A*0201
Description: as §2

| Substance | Peptide specific CTL activity (IFN-gamma production) by IFN-gamma ELISPOT [1] | IFN-gamma production of CTL lines by IFN-gamma ELISA [2] | IFN-gamma production from CTL clones by IFN-gamma ELISA [3] | Cytotoxic activity of CTL clone [4] | Cytotoxic activity of CTL clone [5] | Cytotoxic activity of CTL clone [6] |
| --- | --- | --- | --- | --- | --- | --- |
| FLLTIENEL (a peptide derived from MPHOSPH1) [SEQ ID NO: 5] | potent IFN-gamma production as compared to the control wells | potent IFN-gamma production against T2 cells pulsed with the corresponding peptide | Potent IFN-gamma production was observed | – | – | – |
| FQGCIMQPV (a peptide derived from MPHOSPH1) [SEQ ID NO: 14] | potent IFN-gamma production as compared to the control wells | potent IFN-gamma production against T2 cells pulsed with the corresponding peptide | – | – | – | – |
| GLRAFLLTI (a peptide derived from MPHOSPH1) [SEQ ID NO: 64] | potent IFN-gamma production as compared to the control wells | potent IFN-gamma production against T2 cells pulsed with the corresponding peptide | Potent IFN-gamma production was observed | – | – | – |
| KLICnETVEV (KLICNETVEV; not fully specified (residue 5); printed as KLICnETVEV) [SEQ ID NO: 77] | potent IFN-gamma production as compared to the control wells | potent IFN-gamma production against T2 cells pulsed with the corresponding peptide | Potent IFN-gamma production was observed | – | – | – |
| KLLDLIEDL (a peptide derived from MPHOSPH1) [SEQ ID NO: 1] | no specific IFN-gamma production was observed | – | – | – | – | – |
| KLSNeIETAT (KLSNEIETAT; not fully specified (residue 5); printed as KLSNeIETAT) [SEQ ID NO: 97] | potent IFN-gamma production as compared to the control wells | potent IFN-gamma production against T2 cells pulsed with the corresponding peptide | – | – | – | – |
| LLTLgKCINV (LLTLGKCINV; not fully specified (residue 5); printed as LLTLgKCINV) [SEQ ID NO: 79] | potent IFN-gamma production as compared to the control wells | potent IFN-gamma production against T2 cells pulsed with the corresponding peptide | – | – | – | – |
| QLVAaLEIQL (QLVAALEIQL; not fully specified (residue 5); printed as QLVAaLEIQL) [SEQ ID NO: 103] | potent IFN-gamma production as compared to the control wells | potent IFN-gamma production against T2 cells pulsed with the corresponding peptide | – | – | – | – |
| YIYDLFVPVS [SEQ ID NO: 120, YIYDLFVPVS] | – | – | – | no significant cytotoxic activity was detected | no significant cytotoxic activity was detected | potent cytotoxic activity |
| YLAYdETLNV (YLAYDETLNV; not fully specified (residue 5); printed as YLAYdETLNV) [SEQ ID NO: 73] | potent IFN-gamma production as compared to the control wells | potent IFN-gamma production against T2 cells pulsed with the corresponding peptide | Potent IFN-gamma production was observed | – | – | – |
